Tests used:
CCNE1 = biological target: T1, CCNE1 (Homo sapiens, UniProt P24864); experiment: HiBit Assay Protocol for CCNE1 (HIBIT protein quantification, degradation); type: cell-based; details: HEK293-CCNE1-Hibit cells, compound treatment for 6 hours
T1 construct: host or cells: HEK293-CCNE1-Hibit
Experimental: HiBit Assay Protocol for CCNE1
(§1) • 1. The culture medium for HEK293-CCNE1-Hibit cell was prepared using EMEM with 1000 FBS. • 2. Cells were cultivated in T-75 flasks in a cell culture incubator set at 37° C., 5% CO2, 95% relative humidity. Cells were allowed to reach 80-90% confluence before detaching and splitting. • 3. Cultivated cells were rinsed in T-75 flasks with 5 mL PBS. Aspirate off Added was 1.5 mL trypsin, and the cells were incubated at 37° C. for approximately 5 minutes or until the cells detached and floated. • 4. Trypsin was inactivated by adding excess serum containing medium. • 5. Cells were harvested from flask into cell culture medium and then the cell number was counted. HEK293-CCNE1-Hibit cell were seeded into 384-well plate (cell density: 1.6×10^5 cells/well/50 uL medium) in EMEM medium according to the plate map below and incubated overnight at 37° C. and 500 CO2. • Note: Cell Cultured Medium: 90% EMEM+10% FBS+1% Penicillin-Streptomycin Liquid
(§2) • 1. Test compounds were dissolved at 10 mM DMSO stock solution. 45 μL of stock solution was transferred to a 384 pp-plate. A 3-fold, 10-point dilution was performed via transferring 15 uL compound into 30 uL DMSO by using TECAN liquid handler. • 2. The plates were spinned at room temperature at 1,000 RPM for 1 minute. • 3. 50 nL of diluted compound was transferred from compound source plate into the cell plate by Echo. • 4. After compound treatment for 6 hours, the plate was removed from incubators and equilibrated at room temperature for 15 minutes. The HiBit reagent was prepared, consisting of the following ratios: 10 mL of Nano-Glo®-HiBiT Lytic Buffer, 200 μL of Nano-Glo®-HiBiT Lytic Substrate and 100 μL of LgBiT Protein, mix thoroughly. 20 μL of HiBit reagent was added into each well and the plates were spinned at room temperature at 1,000 RPM for 1 minute to be detected. Then the plates were shaken at 600 RPM at room temperature for 20 minutes, and read by EnVision. • 5. The inhibition activity was calculated following the formula below:
(§3) [formula] • Note: Where HC is obtained from cells treated with […] only; LC is obtained from culture medium only. • 6. ABS DC50 was calculated by fitting the Curve using Xlfit (v5.3.1.3), equation 201: […]

CDK2 = biological target: T2, CDK2 (Homo sapiens, UniProt P24941); experiment: HiBit Assay Protocol for CDK2 (HIBIT protein quantification, degradation); type: cell-based; details: HEK293-CDK2-Hibit cells, compound treatment for 6 hours; for DC50: ABS DC50
T2 construct: host or cells: HEK293-CDK2-Hibit
Experimental: HiBit Assay Protocol for CDK2
as §1, with “HEK293-CDK2-Hibit cells” for “HEK293-CCNE1-Hibit cell”, “DMEM” for “EMEM”, “10%” for “1000”, “5%” for “500”, “DMEM+10%” for “EMEM+10%”
as §2, with “mM DMS” for “mM DMSO”, “45 uL” for “45 μL”, “100 uL” for “100 μL”, “Protein, mixed” for “Protein, mix”
as §3

T1 sequence (P24864 whole entry): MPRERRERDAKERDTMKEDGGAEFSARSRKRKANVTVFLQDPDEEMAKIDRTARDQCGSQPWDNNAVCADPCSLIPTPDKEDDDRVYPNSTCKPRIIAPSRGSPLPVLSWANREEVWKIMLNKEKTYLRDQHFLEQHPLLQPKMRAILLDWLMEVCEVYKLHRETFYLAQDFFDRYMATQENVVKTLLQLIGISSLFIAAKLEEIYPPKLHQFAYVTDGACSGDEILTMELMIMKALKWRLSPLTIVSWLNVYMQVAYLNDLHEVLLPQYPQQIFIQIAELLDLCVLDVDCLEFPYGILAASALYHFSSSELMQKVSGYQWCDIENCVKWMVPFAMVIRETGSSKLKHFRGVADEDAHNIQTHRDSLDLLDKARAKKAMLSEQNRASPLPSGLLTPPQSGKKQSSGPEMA

For `CC1CCCC1N1C(=O)C2(CC2)c2cnc(NC3CCN(S(=O)(=O)C4CCN(C(=O)CCCCCc5cccc6c5n(C)c(=O)n6C5CCC(=O)NC5=O)C4)CC3)nc21` (centres unmarked) [Compound 1, 3-{3-Methyl-4-[6-(3-{4-[7′-(2-methylcyclopentyl)-6′-oxospiro[cyclopropane-1,5′-pyrrolo[2,3-d]pyrimidin]-2′-ylamino]piperidin-1-ylsulfonyl}pyrrolidin-1-yl)-6-oxohexyl]-2-oxo-1,3-benzodiazol-1-yl}piperidine-2,6-dione], the “CCNE1 HIBIT Protein Quantification Maximum” value (CCNE1) was 30.9%, the “CDK2 HIBIT Protein Quantification Maximum” value (CDK2) was 70.2% and the DC50 (CDK2) was 16 nM.

`CC1CCCC1N1C(=O)C2(CC2)c2cnc(NC3CCN(S(=O)(=O)N4CCC5(CCCN5C(=O)CCCCCCCc5cccc6c5n(C)c(=O)n6C5CCC(=O)NC5=O)C4)CC3)nc21` (centres unmarked) [Compound 2, 3-{3-Methyl-4-[8-(7-{4-[7′-(2-methylcyclopentyl)-6′-oxospiro[cyclopropane-1,5′-pyrrolo[2,3-d]pyrimidin]-2′-ylamino]piperidin-1-ylsulfonyl}-1,7-diazaspiro[4.4]nonan-1-yl)-8-oxooctyl]-2-oxo-1,3-benzodiazol-1-yl}piperidine-2,6-dione] was tested, and the “CCNE1 HIBIT Protein Quantification Maximum” value (CCNE1) was 41.1% and the “CDK2 HIBIT Protein Quantification Maximum” value (CDK2) was 45.7%.

With `CC1CCCC1N1C(=O)C2(CC2)c2cnc(NC3CCN(S(=O)(=O)N4CC5(CCCN(C(=O)CCCCCCCc6cccc7c6n(C)c(=O)n7C6CCC(=O)NC6=O)C5)C4)CC3)nc21` (centres unmarked) [Compound 3] the “CCNE1 HIBIT Protein Quantification Maximum” value (CCNE1) was 19.4% and the “CDK2 HIBIT Protein Quantification Maximum” value (CDK2) was 34.6%.

In the case of `CC1CCCC1N1C(=O)C2(CC2)c2cnc(NC3CCN(S(=O)(=O)N4CC5(CCN(C(=O)CCCCCCCc6cccc7c6n(C)c(=O)n7C6CCC(=O)NC6=O)CC5)C4)CC3)nc21` (centres unmarked) [Compound 4], the “CCNE1 HIBIT Protein Quantification Maximum” value (CCNE1) is reported as 21.2%, the “CDK2 HIBIT Protein Quantification Maximum” value (CDK2) is reported as 56.5% and the DC50 (CDK2) is reported as 6.7 nM.

For `CC1CCCC1N1C(=O)C2(CC2)c2cnc(NC3CCN(S(=O)(=O)N4CC5CN(C(=O)CCCCCCCc6cccc7c6n(C)c(=O)n7C6CCC(=O)NC6=O)CC54)CC3)nc21` (centres unmarked) [Compound 5], the “CCNE1 HIBIT Protein Quantification Maximum” value (CCNE1) was 21.9% and the “CDK2 HIBIT Protein Quantification Maximum” value (CDK2) was 24.9%.

In the case of `CC1CCCC1N1C(=O)C2(CC2)c2cnc(NC3CCN(S(=O)(=O)C4CCN(C(=O)CCCCCCCc5cccc6c5n(C)c(=O)n6C5CCC(=O)NC5=O)C4)CC3)nc21` (centres unmarked) [Compound 6], the “CCNE1 HIBIT Protein Quantification Maximum” value (CCNE1) is reported as 30%, the “CDK2 HIBIT Protein Quantification Maximum” value (CDK2) is reported as 66.2% and the DC50 (CDK2) is reported as 14.6 nM.

`CC1CCCC1N1C(=O)C2(CC2)c2cnc(NC3CCN(S(=O)(=O)N4CCN(C(=O)CCCc5ccc6c(c5)n(C)c(=O)n6C5CCC(=O)NC5=O)CC4)CC3)nc21` (centres unmarked) [Compound 7] was tested, and the “CCNE1 HIBIT Protein Quantification Maximum” value (CCNE1) was 21.2% and the “CDK2 HIBIT Protein Quantification Maximum” value (CDK2) was 37.9%.

For `CC1CCCC1N1C(=O)C2(CC2)c2cnc(NC3CCN(S(=O)(=O)N4CCN(C(=O)CCCCc5cccc6c5n(C)c(=O)n6C5CCC(=O)NC5=O)CC4)CC3)nc21` (centres unmarked) [Compound 8], the “CCNE1 HIBIT Protein Quantification Maximum” value (CCNE1) was 24.7%, the “CDK2 HIBIT Protein Quantification Maximum” value (CDK2) was 59.2% and the DC50 (CDK2) was 8.8 nM.

For `CC1CCCC1N1C(=O)C2(CC2)c2cnc(NC3CCN(S(=O)(=O)N4CC5(CCN(C(=O)CCCCc6cccc7c6n(C)c(=O)n7C6CCC(=O)NC6=O)CC5)C4)CC3)nc21` (centres unmarked) [Compound 9], the “CDK2 HIBIT Protein Quantification Maximum” value (CDK2) was 48.4%.

With `CC1CCCC1N1C(=O)C2(CC2)c2cnc(NC3CCN(S(=O)(=O)N4CCC5(CCN(C(=O)CCCCc6cccc7c6n(C)c(=O)n7C6CCC(=O)NC6=O)C5)C4)CC3)nc21` (centres unmarked) [Compound 10] the “CDK2 HIBIT Protein Quantification Maximum” value (CDK2) was 38.9%.

With `CC1CCCC1N1C(=O)C2(CC2)c2cnc(NC3CCN(S(=O)(=O)C4CCN(C(=O)CCCCc5cccc6c5n(C)c(=O)n6C5CCC(=O)NC5=O)C4)CC3)nc21` (centres unmarked) [Compound 11] the “CCNE1 HIBIT Protein Quantification Maximum” value (CCNE1) was 23.6% and the “CDK2 HIBIT Protein Quantification Maximum” value (CDK2) was 49.5%.

With `CC1CCCC1N1C(=O)C2(CC2)c2cnc(NC3CCN(S(=O)(=O)N4CCN(C(=O)CCCCc5ccc6c(c5)n(C)c(=O)n6C5CCC(=O)NC5=O)CC4)CC3)nc21` (centres unmarked) [Compound 12] the “CCNE1 HIBIT Protein Quantification Maximum” value (CCNE1) was 16.9% and the “CDK2 HIBIT Protein Quantification Maximum” value (CDK2) was 34.6%.

`CC1CCCC1N1C(=O)C2(CC2)c2cnc(NC3CCN(S(=O)(=O)N4CCC(CN5CCC(c6cccc7c6n(C)c(=O)n7C6CCC(=O)NC6=O)CC5)CC4)CC3)nc21` (centres unmarked) [Compound 14, 3-(3-Methyl-4-{1-[(1-{4-[7′-(2-methylcyclopentyl)-6′-oxospiro[cyclopropane-1,5′-pyrrolo[2,3-d]pyrimidin]-2′-ylamino]piperidin-1-ylsulfonyl}piperidin-4-yl)methyl]piperidin-4-yl}-2-oxo-1,3-benzodiazol-1-yl)piperidine-2,6-dione] was tested, and the “CCNE1 HIBIT Protein Quantification Maximum” value (CCNE1) was 37.7%, the “CDK2 HIBIT Protein Quantification Maximum” value (CDK2) was 57.4% and the DC50 (CDK2) was 4.56 nM.

`Cn1nc(N2CCC(=O)NC2=O)c2ccc(C3CCN(Cc4cccc(S(=O)(=O)N5CCC(Nc6ncc7c(n6)N([C@@H]6CCC[C@@H](O)C6)C(=O)C76CCC6)CC5)c4)CC3)cc21` [Compound 174, 1-[6-(1-{[3-(4-{7′-[(1R,3R)-3-Hydroxycyclohexyl]-6′-oxospiro[cyclobutane-1,5′-pyrrolo[2,3-d]pyrimidin]-2′-ylamino}piperidin-1-ylsulfonyl)phenyl]methyl}piperidin-4-yl)-1-methylindazol-3-yl]-1,3-diazinane-2,4-dione] was tested, and the “CCNE1 HIBIT Protein Quantification Maximum” value (CCNE1) was 47%, the “CDK2 HIBIT Protein Quantification Maximum” value (CDK2) was 82% and the DC50 (CDK2) was 3.58 nM.

With `CC1CN(C(C)c2cccc(S(=O)(=O)N3CC[C@H](Nc4ncc5c(n4)N([C@@H]4CCC[C@@H](O)C4)C(=O)C54CC4)[C@H](F)C3)c2)CCC1c1ccc2c(N3CCC(=O)NC3=O)nn(C)c2c1` (some centres unmarked) [Compound 189] the “CCNE1 HIBIT Protein Quantification Maximum” value (CCNE1) was 47%, the “CDK2 HIBIT Protein Quantification Maximum” value (CDK2) was 88% and the DC50 (CDK2) was 2.62 nM.

`CC(C)C1CC(c2ccc3c(N4CCC(=O)NC4=O)nn(C)c3c2)CCN1C(C)c1cccc(S(=O)(=O)N2CC[C@H](Nc3ncc4c(n3)N([C@@H]3CCC[C@@H](O)C3)C(=O)C43CC3)[C@H](F)C2)c1` (some centres unmarked) [Compound 190] was tested, and the “CCNE1 HIBIT Protein Quantification Maximum” value (CCNE1) was 27%, the “CDK2 HIBIT Protein Quantification Maximum” value (CDK2) was 70% and the DC50 (CDK2) was 13.6 nM.

`C[C@H](c1cccc(S(=O)(=O)N2CC[C@H](Nc3ncc4c(n3)N([C@@H]3CCC[C@@H](O)C3)C(=O)C43CC3)[C@H](F)C2)c1)N1CCN(c2ccc3c(N4CCC(=O)NC4=O)nn(C)c3c2)C[C@@H]1C` [Compound 193] was tested, and the “CCNE1 HIBIT Protein Quantification Maximum” value (CCNE1) was 48%, the “CDK2 HIBIT Protein Quantification Maximum” value (CDK2) was 85% and the DC50 (CDK2) was 10.3 nM.

— patent US20260070917A1, “CYCLIN DEPENDENT KINASE DEGRADERS AND METHODS OF USE THEREOF” (Differentiated Therapeutics Inc, priority 2023, published 2026)
